Consider six molecules from ChEMBL document CHEMBL1150349, “Design and synthesis of hydroxy-alkynoic acids and their methyl esters as novel activators of BK channels” (Bioorg Med Chem Lett, 2008).

In the assay the target is Calcium-activated potassium channel subunit alpha-1 (Rattus norvegicus) (UniProt Q62976). The experiment in a line: Activation of BK channel in rat cerebral myocytes by voltage patch clamp method. Type of assay: cell-based. A general note: In patch-clamp work, channel activity is measured electrically.

Molecules are shown by their SMILES. The source made the active and inactive calls. No cut-off for these calls is given here.

Chain of Calcium-activated potassium channel subunit alpha-1 (Rattus norvegicus) (Q62976 whole entry): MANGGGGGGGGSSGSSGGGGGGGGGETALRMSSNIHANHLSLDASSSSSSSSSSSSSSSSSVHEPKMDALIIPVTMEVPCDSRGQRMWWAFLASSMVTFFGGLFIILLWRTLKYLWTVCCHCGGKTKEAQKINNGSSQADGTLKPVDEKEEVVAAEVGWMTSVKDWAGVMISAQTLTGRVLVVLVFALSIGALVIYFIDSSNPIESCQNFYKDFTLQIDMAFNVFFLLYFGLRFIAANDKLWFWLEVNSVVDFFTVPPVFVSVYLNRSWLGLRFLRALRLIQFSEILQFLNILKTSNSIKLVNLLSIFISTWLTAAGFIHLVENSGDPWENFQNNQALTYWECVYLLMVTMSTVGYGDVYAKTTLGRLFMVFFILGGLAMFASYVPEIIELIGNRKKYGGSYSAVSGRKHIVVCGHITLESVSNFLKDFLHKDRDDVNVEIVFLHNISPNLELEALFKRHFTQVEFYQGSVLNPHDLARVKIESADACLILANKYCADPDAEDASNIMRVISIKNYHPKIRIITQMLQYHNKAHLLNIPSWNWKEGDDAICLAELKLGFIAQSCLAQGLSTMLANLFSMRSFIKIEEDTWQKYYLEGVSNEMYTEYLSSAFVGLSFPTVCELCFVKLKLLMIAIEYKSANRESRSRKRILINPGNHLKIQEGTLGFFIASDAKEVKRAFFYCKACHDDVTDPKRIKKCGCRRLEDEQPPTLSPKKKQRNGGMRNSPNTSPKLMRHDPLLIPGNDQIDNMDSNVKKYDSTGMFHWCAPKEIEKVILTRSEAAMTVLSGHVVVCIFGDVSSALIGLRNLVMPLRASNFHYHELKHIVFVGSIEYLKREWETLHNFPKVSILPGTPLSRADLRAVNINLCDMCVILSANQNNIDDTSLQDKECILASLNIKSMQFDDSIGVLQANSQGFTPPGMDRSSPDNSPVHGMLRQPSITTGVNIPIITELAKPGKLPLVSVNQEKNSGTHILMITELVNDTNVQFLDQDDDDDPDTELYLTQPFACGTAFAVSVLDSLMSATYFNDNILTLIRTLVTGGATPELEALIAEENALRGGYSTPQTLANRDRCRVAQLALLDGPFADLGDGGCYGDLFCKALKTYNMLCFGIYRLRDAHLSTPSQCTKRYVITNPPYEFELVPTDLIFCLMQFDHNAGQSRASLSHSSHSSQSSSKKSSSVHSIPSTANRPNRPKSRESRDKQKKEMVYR

`O=C(O)CCCCCC#CCCCCO`: the result was Active.

For the molecule `COC(=O)CCCCC#CCCCO`, the result was Active. `COC(=O)CCCCCCCC#CCCCCO`: the outcome was inactive.

Take `COC(=O)CCCCCCCCCC#CCCCCO`: the outcome was inactive. Take `COC(=O)CCCC#CCCO`: the outcome was inactive. The same measure for `O=C(O)CCCCCC#CCCCO`: “Active”.
